Consider six compounds from article PMC7893776, “Selecting an anti-malarial clinical candidate from two potent dihydroisoquinolones” (Malaria Journal, 2021).

Data set [1] is described as follows: LogD octanol/pH 7.4 buffer shake flask. The class given is physicochemical. The method, then: Octanol/pH 7.4 buffer partitioning experiments were conducted using a shake flask method, and pKa was assessed by potentiometric titration. Both methods have been described previously.
A further data set concerns the target T1, CYP2C9 (Homo sapiens, UniProt P11712).
T1 construct: purchased Cypex Ltd (Bactosomes)
Put plainly: CYP450 inhibition, CYP2C9. The data set is classed as in vitro ADME. The conditions noted are these: for inhibition of CYP2C9: 10 µM, probe substrate Diclofenac, replicate measurements. As to the method:
SJ733 was first pre-incubated with Bactosomes™ (Cypex Ltd, final P450 concentration: CYP1A1 25 pmol/mL, CYP1A2 100 pmol/mL,CYP1B1 100 pmol/mL, CYP2B6 100 pmol/mL, CYP2C8 50 pmol/mL, CYP2C9, 25 pmol/mL, CYP2C19 100 pmol/mL, CYP2D6 50 pmol/mL and CYP3A4 25 pmol/mL, 0.1 M phosphate buffer pH 7.4) at 37 °C prior to the addition of NADPH (final concentration 1 mM) to initiate the reaction with a final incubation volume of 50 μL. Incubations were also performed using control Bactosomes™ (no P450 enzymes present) to reveal any non-enzymatic degradation. Control compounds known to be metabolized specifically by each P450 isoform were included individually. Test articles and controls were incubated with each isoform for 0, 5, 15, 30, and 45 min. The reactions were stopped by transferring 20 μL of the reaction mixture to 60 μL methanol at the appropriate timepoints.
In an alternate approach SJ311 was studied using a validated cocktail probe substrate method. […] All samples were analyzed using LC MS/MS, with either positive atmospheric pressure chemical ionization (APCI) mode (SJ311) or ESI (SJ733) mode utilizing multiple reaction monitoring (MRM) scans.

The nature of data set [2]: Rat pharmacokinetics, single PO or IV dose. The data set is classed as in vivo, male Sprague Dawley rats. The conditions noted are these: for fraction of the IV dose recovered in urine: 24-h sampling period; for AUC(0-inf): all dose levels 50–200 mg/kg, read-out: mean AUCinf. The text has this: Studies were undertaken to determine the plasma pharmacokinetics of SJ733 and SJ311. These studies included: (i) single oral gavage (PO) or intravenous (IV) dose administration to female C57BL/6 mice; (ii) single PO or IV dose administration to male Sprague Dawley (SD) rats; (iii) single PO or IV dose administration to male beagle dogs; (iv) toxicokinetic (TK) study following single PO administration to male SD rats. The PO and IV formulation used for mouse studies at SJCRH was 1% hydroxypropyl-beta-cyclodextrin (w/v), 10% ethanol (v/v), 10% propylene glycol (v/v), 40% PEG-400 (v/v) and 39% PBS (pH 7.4) isotonic (v/v). Compounds were dosed orally as suspensions, and intravenously as filtered solutions. Compound concentrations were confirmed post filtration using UV spectroscopy. The IV formulation used for rat studies (Monash University) was the same as that used for mice. For PO dosing to rats (Monash University) at 2 mg/kg, a suspension formulation was used containing 0.5% (w/v) hydroxypropyl methylcellulose, 0.5% (v/v) benzyl alcohol and 0.4% (v/v) Tween 80. The formulation used for rat studies at SRI (PO, high dose) was the same as that used in mouse PK studies. The formulation for the high dose TK study at SRI was 0.5% methylcellulose in sterile water. The formulation used for dog studies was the same as that used in mouse PK studies. The PO and IV PK of SJ733 and SJ311 were studied in overnight-fasted male Sprague Dawley rats. Rats had access to water ad libitum throughout the pre- and post-dose sampling period, and access to food was re-instated 4 h post-dose. […] Once collected, blood samples were centrifuged, supernatant plasma was removed and stored frozen (− 20 °C) until LC–MS analysis within 1 week of collection. The high dose levels of both compounds (50, 100, 200 mg/kg, PO, (+)-SJ733/311) were also independently tested by SRI, with a single oral gavage administration. Blood (through jugular vein) and urine were collected at time points up to 72 and 24 h post dose, respectively. Supernatant plasma was removed following centrifugation and stored frozen (− 70 °C) until LC–MS analysis. For toxicology studies, male Sprague Dawley rats were administered 50, 100, 250, 500, or 750 mg/kg of (r)-SJ733 or (r)-SJ311 by oral gavage (one dose per animal). Body weights were recorded on Day 1 prior to dose administration and on Day 4. Blood samples (400 µL) were collected at 4 and 24 h post drug administration from the retro-orbital sinus. Potassium EDTA treated plasma was collected and kept frozen at -70 °C for bioanalytical analysis. For studies at Monash University, rat plasma and urine samples were extracted utilizing protein precipitation with a twofold volume ratio of acetonitrile. SJ733, SJ311, and diazepam (IS) were detected using LC–MS/MS instrumentation. Aliquots (3 µL) were injected onto a Waters Acquity UPLC equipped with a Waters Micromass Xevo TQ MS/MS and separated using a Supelco Ascentis Express RP Amide column (50 × 2.1 mm, 2.7 µm) with a methanol–water gradient containing 0.05% formic acid. Calibration standards were prepared by spiking blank matrix (plasma or urine) and the calibration range was from 1 to 10,000 ng/mL for plasma or 2.5 to 5000 ng/mL for urine. Plasma and urine samples from the high dose rat PK studies were analyzed by SRI. In both matrices, the sample volume was 50 μL, and assay entailed the addition of 50 μL of internal standard solution to the standards and study samples. The compounds were used as reciprocal standards for one another (427 nM SJ733 in Milli-Q-Water for SJ571311 and 437 nM SJ311 in Milli-Q-Water for SJ733). These mixtures were then extracted with 1000 μL of ethyl acetate by vortexing for 10 min on a multi-tube vortex mixer at maximum speed followed by separation of the organic and aqueous phases by centrifugation (18,000×g, 5 min). […]

The mark [3] stands for this setting: male, Sprague Dawley, plasma, PO.
Setting [4] is: male, Sprague Dawley, plasma, PO, read-out: terminal half-life, mean t1/2.

“And” between values parts separate entries of the source, which are not always exact repeats. Equal values may be shown once. Read-outs that look alike come from different tables or passages of the source.

T1 sequence (P11712 whole entry): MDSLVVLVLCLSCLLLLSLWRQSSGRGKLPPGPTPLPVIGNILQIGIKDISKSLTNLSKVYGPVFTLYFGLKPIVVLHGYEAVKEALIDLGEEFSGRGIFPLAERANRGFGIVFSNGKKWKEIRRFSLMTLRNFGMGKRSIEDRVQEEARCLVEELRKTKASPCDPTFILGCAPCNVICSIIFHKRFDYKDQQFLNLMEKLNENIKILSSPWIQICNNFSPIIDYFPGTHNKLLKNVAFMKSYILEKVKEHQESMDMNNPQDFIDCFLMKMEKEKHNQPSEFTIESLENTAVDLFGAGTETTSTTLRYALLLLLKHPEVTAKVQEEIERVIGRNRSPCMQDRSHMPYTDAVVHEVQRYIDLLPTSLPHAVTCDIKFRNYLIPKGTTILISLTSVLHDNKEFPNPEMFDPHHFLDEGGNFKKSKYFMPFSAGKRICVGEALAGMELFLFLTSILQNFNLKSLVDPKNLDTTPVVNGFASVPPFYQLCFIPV

For `N#Cc1cc(NC(=O)C2c3ccccc3C(=O)N(CC(F)(F)F)C2c2cn[nH]c2)ccc1F` (racemic) [(r)-SJ311], in data set [1], the “LogD (7.4) Shake flask” value was 2.34. In addition, the “inhibition of CYP2C9” value against CYP2C9 was 19% and 15%.
As for `N#Cc1cc(NC(=O)[C@H]2c3ccccc3C(=O)N(CC(F)(F)F)[C@@H]2c2cn[nH]c2)ccc1F` [(+)-SJ311], the “LogD (7.4) Shake flask” value in data set [1] is 2.30. The Half life in data set [2] (in vivo, po, 20.4 mg/kg) is recorded as 7.9, 7.9 h. Moreover, in data set [2] (in vivo, po, 50 mg/kg), the AUCinf stood at 34.1 ± 8.7 µM·h, the CL/F was determined as 56.7 ± 16.7 mL/min/kg, the highest concentration (Cmax) was 4.4 ± 2 µM and the F% stood at 20.5%. For the same compound, in data set [2] (in vivo, po, 50 mg/kg), the Half life is reported as 3.5 ± 0.4 h, the Tmax is 1.2 ± 0.8 h and the V/F was found to be 17 ± 7.0 L/kg. In addition, in data set [2] (in vivo, po, 100 mg/kg), the AUCinf was 61.9 ± 11.5 µM·h, the CL/F came to 60 ± 12 mL/min/kg, the highest concentration (Cmax) stood at 7.1 ± 0.81 µM and the F% is recorded as 18.6%. Also, in data set [2] (in vivo, po, 100 mg/kg), the Half life is recorded as 4.3 ± 2.2 h, the Tmax is on record as 4 h and the V/F came to 21 ± 8.0 L/kg. In data set [2] (in vivo, po, 200 mg/kg), this compound displayed an AUCinf of 65.8 ± 12.6 µM·h, a CL/F of 112 ± 8.3 mL/min/kg, a maximum concentration (Cmax) of 9.4 ± 5.4 µM and a Dose in urine of 1.1 ± 0.4%. In addition, in data set [2] (in vivo, po, 200 mg/kg), the F% is reported as 9.9%, the Half life is on record as 4 h, the Tmax is on record as 3.2 ± 4.2 h and the V/F was determined as 38 L/kg.
Consider `N#Cc1cc(NC(=O)[C@H]2c3ccccc3C(=O)N(CC(F)(F)F)[C@@H]2c2cccnc2)ccc1F` (racemic) [SJ733], for which, in data set [2] (IV), the “fraction of the IV dose recovered in urine” value is approximately 1.5%. Moreover, the Half-life in data set [2] (male, Sprague Dawley, plasma, IV, isomers and racemate at similar doses, read-out: IV half-lives) was 5 to 18 h; in data set [2] (setting [4]) it was 7.7 to 10.3 h. In data set [2] (setting [3]), the AUC(0-inf) lay within 96.3 to 330 µM·h. Further, the bioavailability in data set [2] (male, Sprague Dawley, plasma, po, summary over the oral doses studied, read-out: Rat F (oral bioavailability)) was 60 to 100%. Also, the clearance in data set [2] (male, Sprague Dawley, plasma, read-out: measured in vivo clearance (converted)) was approximately 11.7 mL/min/kg. The “Rat F (oral bioavailability)” value in data set [2] (summary over the oral doses studied) was 63-122%. In addition, on CYP2C9, the “CYP2C9 inhibition, in words” value is reported as “weak inhibitors”.
As to `N#Cc1cc(NC(=O)C2c3ccccc3C(=O)N(CC(F)(F)F)C2c2cccnc2)ccc1F` (racemic) [(r)-SJ733], in data set [2] (in vivo, po, 19.8 mg/kg), the time of peak concentration (Tmax) was 1.0 h. In addition, the “inhibition of CYP2C9” value against CYP2C9 is 34% and 17%.
For `N#Cc1cc(NC(=O)[C@H]2c3ccccc3C(=O)N(CC(F)(F)F)[C@@H]2c2cn[nH]c2)ccc1F` [SJ311], in data set [1] (pH 7.4), the logD is 2.3. Besides, the “fraction of the IV dose recovered in urine” value in data set [2] (IV) is on record as “ca. 22%”. Besides, the AUC(0-inf) in data set [2] (setting [3]) was in the range of 34.1 to 65.8 µM·h. In data set [2] (setting [4]), the Half-life fell in the range of 3.5 to 7.9 h. Further, the “CYP2C9 inhibition, in words” value on CYP2C9 was “weak inhibitors”.
In data set [2] (in vivo, iv, 0.1 mg/kg), `N#Cc1cc(NC(=O)[C@H]2c3ccccc3C(=O)N(CC(F)(F)F)[C@@H]2c2cccnc2)ccc1F` [(+)-SJ733] yielded an AUCinf of 14.7 ± 0.7 µM·h, a CL of 11.3 ± 0.33 mL/min/kg, a Dose in urine of 1.6 ± 0.5% and a Half-life of 9.2 ± 0.4 h. Also, in data set [2] (in vivo, iv, 0.1 mg/kg), the Vss stood at 3.3 ± 0.2 L/kg. In data set [2] (in vivo, po, 1.7 mg/kg), the AUCinf is given as 1.9 ± 0.6^ c h.µM, the Cmax stood at 0.7 ± 0.1 µM, the Dose in urine stood at 0.5 ± 0.3% and the F% is reported as 36.7 ± 12%. Besides, the Tmax in data set [2] (in vivo, po, 1.7 mg/kg) is 0.7 ± 0.3 h. In data set [2] (in vivo, po, 1.9 mg/kg), the AUCinf came to 6.6 ± 1.2 µM·h, the concentration peaked (Cmax) at 0.9 ± 0.1 µM, the Dose in urine worked out at 1.2 ± 0.4% and the F% turned out to be 111 ± 19%. Also, in data set [2] (in vivo, po, 1.9 mg/kg), the Half life is listed as 11.3 ± 6.0 h and the Tmax was found to be 3.0 ± 0.9 h. In data set [2] (in vivo, po, 50 mg/kg), this compound yielded an AUCinf of 96.3 ± 5.8 µM·h, a CL/F of 18.3 ± 1.7 mL/min/kg, a Cmax of 11.1 ± 1.2 µM and a F% of 74.5%. In addition, in data set [2] (in vivo, po, 50 mg/kg), the Half life is given as 7.7 ± 3.2 h, the Tmax came to 4 h and the V/F turned out to be 12 ± 5.0 L/kg. In data set [2] (in vivo, po, 100 mg/kg), the AUCinf worked out at 180 ± 23.2 µM·h, the CL/F was determined as 20 ± 1.7 mL/min/kg, the Cmax was 16.6 ± 3.2 µM and the F% is 69.6%. Moreover, in data set [2] (in vivo, po, 100 mg/kg), the Half life is listed as 10.3 ± 6.9 h, the Tmax is on record as 3.0 ± 1.7 h and the V/F is on record as 17 ± 9.0 L/kg. Also, in data set [2] (in vivo, po, 200 mg/kg), the AUCinf was 330 ± 78.4 µM·h, the CL/F stood at 21.7 ± 5 mL/min/kg, the Cmax was found to be 27.9 ± 3.8 µM and the Dose in urine came to 0.2 ± 0.1%. In addition, in data set [2] (in vivo, po, 200 mg/kg), the F% turned out to be 63.8%, the Half life is listed as 7.7 ± 3.3 h, the Tmax is on record as 4.0 ± 3.5 h and the V/F is 15 ± 9.0 L/kg.
